Broadly, the IC50 is the concentration at which inhibition is half-maximal. By inhibition is commonly meant the percentage by which the read-out fell short of the control.

The assay has as its target T1, 5α-Reductase of Rat Liver Microsomes (Rattus norvegicus, UniProt P24008).
T1 sequence (P24008 1-259): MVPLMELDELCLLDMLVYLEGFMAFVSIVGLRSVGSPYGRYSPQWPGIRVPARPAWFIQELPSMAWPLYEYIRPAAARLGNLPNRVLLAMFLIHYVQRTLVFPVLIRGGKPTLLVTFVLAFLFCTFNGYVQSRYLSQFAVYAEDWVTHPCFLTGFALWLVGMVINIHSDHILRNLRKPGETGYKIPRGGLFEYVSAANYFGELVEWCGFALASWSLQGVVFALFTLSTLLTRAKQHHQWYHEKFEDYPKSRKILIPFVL
The assay can be described thus: biochemical. Particulars: for inhibition at 5 µM: read-out: % Inhibition of [^3 H]4-MA binding, Table 2, 5 μM.

Where [1] appears, read: read-out: % Inhibition of [^3 H]4-MA binding, Table 1, 10 μM.
Where [2] appears, read: read-out: % Inhibition of [^3 H]4-MA binding, Table 1, 40 μM.
The mark [3] stands for this setting: read-out: % Inhibition of [^3 H]4-MA binding, Table 1, 200 μM.
[4] abbreviates: read-out: % Inhibition of [^3 H]4-MA binding, Table 2, 10 μM.
[5] abbreviates: read-out: % Inhibition of [^3 H]4-MA binding, Table 2, 40 μM.
[6] abbreviates: read-out: % Inhibition of [^3 H]4-MA binding, Table 2, 200 μM.
The mark [7] stands for this setting: read-out: % Inhibition of [^3 H]4-MA binding.

The structures appear in SMILES notation. Where two headings read alike, the source gives them in different places. A value given as a limit tells only on which side of the number the result lay.

The compound `CC/C=C\C/C=C\C/C=C\C/C=C\CCCCC(=O)O` [Octadecatetraenoic acid] gave an IC50 of 57 µM. Also, the inhibition at 10 µM under setting [1] is < 10%. Further, the inhibition at 40 µM under setting [2] stood at 40 ± 6%. Also, the inhibition at 200 µM under setting [3] is 88 ± 2%. For the same compound, the inhibition at 10 µM under setting [4] is < 10%. Further, under setting [5], the inhibition at 40 µM was 40%. The inhibition at 200 µM under setting [6] turned out to be 88%.

On to `CCCCCCCCCCCCCCCCCCCC(=O)Cl` [Arachidoyl Chloride, archidoyl chloride], for which the IC50 was > 200 µM. The inhibition at 10 µM under setting [4] was < 10%. For the same compound, the inhibition at 40 µM under setting [5] was < 10%. For the same compound, under setting [6], the inhibition at 200 µM is < 10%.

Regarding `CCCCCC/C=C\CCCCCCCC(=O)O` [Palmitoleic acid], the IC50 was 108 µM. For the same compound, the inhibition at 10 µM under setting [1] was < 10%. The inhibition at 40 µM under setting [2] stood at 16 ± 5%. The inhibition at 200 µM under setting [3] was found to be 73 ± 7%. For the same compound, the inhibition at 10 µM under setting [4] is < 10%. The inhibition at 40 µM under setting [5] was 16%. Also, under setting [6], the inhibition at 200 µM worked out at 73%.

Regarding `CCCCCCCCCCCCCCCCCCC#N` [nonadecane nitrile], the IC50 is > 200 µM.

For the compound `CCCCC/C=C\C/C=C\C/C=C\CCCCCOC(C)=O` [γ-Linolenyl Acetate, γ-linolenyl acetate], the IC50 was > 200 µM and the inhibition at 5 µM was < 10%. Besides, under setting [4], the inhibition at 10 µM is < 10%. Further, the inhibition at 40 µM under setting [5] is < 10%. In addition, under setting [6], the inhibition at 200 µM is 27%.

With `CCCCC/C=C\C/C=C\C/C=C\CCCCC(=O)OC` [methyl γ-linolenate], the 50% inhibitory concentration (IC50) is > 200 µM.

Regarding `CCCCCC/C=C\CCCCCCCCO` [Palmitoleyl alcohol], under setting [7], the inhibition at 40 µM was < 10% and the inhibition at 200 µM worked out at 16 ± 4%.

As to `CCCCCCCC/C=C\CCCCCCCCCCCCC(=O)O` [14-Tricosenoic Acid, 14 tricosenoic acid], the IC50 is > 200 µM and the inhibition at 5 µM is < 10%. Under setting [4], the inhibition at 10 µM is < 10%. Under setting [5], the inhibition at 40 µM is < 10%. Besides, the inhibition at 200 µM under setting [6] is 36%.

Take `CCCCC/C=C\C/C=C\CCCCCCCCCC(=O)O` [11,14-cis-Eicosadienoic Acid, 11,14 eicosadienoic acid]: half-maximal inhibition (IC50) was put at 131 µM and the inhibition at 5 µM is < 10%. In addition, the inhibition at 10 µM under setting [4] is < 10%. For the same compound, the inhibition at 40 µM under setting [5] is < 10%. Moreover, under setting [6], the inhibition at 200 µM was 89%.

Turning to `CC/C=C\C/C=C\C/C=C\CCCCCCCC(=O)Cl` [Linolenoyl Chloride], the inhibition at 200 µM under setting [7] was < 10%.

Regarding `CCCCCC/C=C/CCCCCCCC(=O)O` [Palmitelaidic Acid], the inhibition at 200 µM under setting [7] is < 10%.

`CCCCC/C=C\C/C=C\C/C=C\CCCCCCC(=O)Cl` [homo-γ-linolenoyl chloride]: the IC50 was > 200 µM.

With `CCCCCCCC/C=C\CCCCCCCCCCC(=O)O`, half-maximal inhibition (IC50) was put at 154 µM and the inhibition at 5 µM was < 10%. For the same compound, under setting [4], the inhibition at 10 µM was found to be 15%. Also, the inhibition at 40 µM under setting [5] was 25%. For the same compound, the inhibition at 200 µM under setting [6] worked out at 60%.

For `CCCCC/C=C\C/C=C\CCCCCCCC(=O)OC` [Linoleic acid methyl ester], under setting [7], the inhibition at 40 µM was < 10% and the inhibition at 200 µM is < 10%.

In the case of `CCCCCC/C=C/CCCCCCCCCC(=O)O` [trans-Vaccenic Acid], under setting [6], the inhibition at 200 µM was 39%.

In the case of `CCCCCCCC/C=C\CCCCCCCC(=O)OC` [Oleic acid methyl ester], under setting [7], the inhibition at 40 µM was < 10% and the inhibition at 200 µM was < 10%.

With `CCCC/C=C\CCCCCCCC(=O)OC` [myristoleic acid methyl ester], the inhibition at 200 µM under setting [7] was 27%.

With `CCCCCC/C=C\CCCCCCCC(=O)OC` [Palmitoleic acid methyl ester], under setting [7], the inhibition at 40 µM was < 10% and the inhibition at 200 µM was < 10%.

`CCCCCCC=CCCCCCCCCC(=O)OC` [methyl 10-heptadecenoate]: the IC50 is > 200 µM.

The record behind these values is patent US5605929A, “Methods and compositions for inhibiting 5α-reductase activity” (priority 1995, dated 1997).
